From US20250011484A1, “METHODS FOR PREPARING METALLOCENE COMPOUNDS” (Chevron Phillips Chemical Company LP, priority 2023, published 2025) come the findings set out here.

Data set [1] is described as follows: Solubility of metallocenes in 1-decene. The data set is classed as physicochemical. The following applies: ambient temperature (21° C.), visual inspection for solids or haze. The procedure: Additional portions of the desired metallocenes were then added in increments of 3-4 mg and the mixture was allowed to stir for 30 minutes after each addition at ambient temperature (21° C.). The resulting mixtures were visually inspected for solids or significant haze. Metallocenes were considered soluble if significant haze or solids were not observed.

Data set [2] in a line: Metallocene-catalyzed oligomerization of 1-decene. The following applies: 1-decene 675 g, 110° C., 1 hour, 5 mg metallocene, CTSO, TIBA, hydrogen. As for the experimental part: Metallocene-catalyzed oligomerizations were performed using MET-A and MET-D as follows. Generally, 1-decene was oligomerized to an oligomer product of dimers, trimers, and tetramers in the presence of MET-A or MET-D, as noted in Table II below. For Examples 8-9, a 1-gallon batch reactor was charged with 675 g of 1-decene. A syringe was charged with CTSO (0.750 g), TIBA (1.3 mL of a 1.0 M hexane solution), and metallocene (5 mg). The chemically treated solid oxide (CTSO) was a fluorided silica-coated alumina (60:40 alumina:silica by weight) containing 4 wt. % F and having a d50 average particle size of 35 microns, a BET surface area of 450 m^2/g, and a pore volume of 1.1 mL/g. The catalyst mixture was shaken to mix and was then charged to the reactor under a nitrogen purge. The reactor was heated to 110° C. while stirring at 600-900 rpm. […]
The reaction mixture was then filtered and analyzed by gas chromatography to determine the yield of oligomer product formed in the reaction mixture, and to determine the relative amount of certain oligomers within the oligomer product (e.g., the trimer:tetramer weight ratio). […]
The distribution of olefin end groups was determined using ^1H NMR on a Bruker 300 MHz NMR. Spectra were recorded in CDCl3 and are reported relative to SiMe4 as determined by reference to the residual ^1H solvent peak. […]

A short description of data set [3]: Ethylene/1-hexene polymerization with metallocene catalyst compositions. As for the experimental part:
Polymerization experiments employing catalyst compositions comprising MET-A, MET-B, MET-C, MET-D, MET-E, and MET-F were conducted as follows. Unless otherwise indicated, the polymerization experiments used in the following examples were conducted for […] in a one-gallon (3.8 L) stainless-steel autoclave reactor containing isobutane as diluent. A syringe was charged with 250 mg solid activator-support, 2 mL hexane, 0.5 mL of 1M TIBA (in hexane) and 2.0 mg metallocene (MET-A, MET-B, MET-C, MET-D, MET-E, or MET-F, as noted in Tables III and IV) in that order. The slurry was charged to the reactor under an isobutane purge. The reactor was sealed, charged with 2 L of isobutane, and heated to 80° C. Ethylene was charged to the reactor and fed on demand to maintain the target pressure of 320 psig (2.2 MPa). The reactor was maintained at the target temperature throughout the experiment by an automated heating-cooling system. After venting of the reactor, purging, and cooling, the resulting polymer product was dried under reduced pressure. For Examples 40-41, the polymerization temperature was 90° C., and ethylene pressure was maintained at 390 psig ethylene, with a 1-hexene feed ratio of 20 wt. % vs. ethylene.

`Fc1c(F)c(F)c(C[c-]2ccc3ccccc32)c(F)c1F.[Cl-].[Cl-].[Zr+4].c1cc[cH-]c1` (stereo not drawn) [MET-A] had a Solubility in data set [1] of under 0.1 wt. %. In addition, in data set [2], the Activity is 75,060 g/(g*h). Also, the “Support Activity” value is on record as 1,920 g/(g*h) in data set [3] (1-hexene 7.5 g, 80° C., 320 psig, 30 min, isobutane, TIBA); 1,776 g/(g*h) in data set [3] (1-hexene 12 g, 80° C., 320 psig, 30 min, isobutane, TIBA); 1,872 g/(g*h) in data set [3] (1-hexene 17.5 g, 80° C., 320 psig, 30 min, isobutane, TIBA); 2,144 g/(g*h) in data set [3] (1-hexene 30 g, 80° C., 320 psig, 30 min, isobutane, TIBA); 2937 g/g/h in data set [3] (Table IV, 1-hexene 49 g, 90° C., 390 psig ethylene, 1-hexene feed ratio 20 wt. %).

`CCCC[c-]1cccc1.Fc1c(F)c(F)c(C[c-]2ccc3ccccc32)c(F)c1F.[Cl-].[Cl-].[Zr+4]` (stereo not drawn) [MET-G]: the Solubility in data set [1] was found to be 0.4 wt. %. In addition, the “Support Activity” value in data set [3] (Table IV, 1-hexene 51 g, 90° C., 390 psig ethylene, 1-hexene feed ratio 20 wt. %) came to 1392 g/g/h.
